Laboratory results reported in US20240196897A1, “METHOD FOR CONTROLLING DISEASE-TRANSMITTING INSECTS USING CONDENSED HETEROCYCLIC COMPOUND” (SUMITOMO CHEMICAL COMPANY, LIMITED, priority 2021, published 2024).

Key:
[1] = test system: German cockroaches (Blattella germanica); test: Aerosol spray test on adult German cockroaches, moribund and mortal rates; assay type: in vivo; conditions: aerosol per Formulation Example 2 (0.1 part compound); spray time 1.35 seconds, spray amount about 800 mg, from height 50 cm; ten adults; one day after spraying
Protocol: (§1) The internal pressure of the container at 20° C. of the aerosols thus fabricated was 0.5 MPa, the spray amount was 3 g/5 seconds, and the representative particle size (XR value) was 14 to 15 μm.
In a plastic container (diameter: 12.4 cm, height: 10.2 cm), ten adult German cockroaches (Blattella germanica) (five males and five females each) were released, and the plastic container was placed in the center of the bottom of a cylindrical chamber of 17.2 cm in diameter. From the height of 50 cm, the aerosol containing each compound listed in Table 2 which was fabricated according to the method mentioned in Formulation Example 2 was sprayed with a spray time of 1.35 seconds and a spray amount of about 800 mg. After a lapse of one day from spraying, the number of dead and moribund individuals was examined, and moribund and mortal rates (%) were determined by the equation 1 below. Dead individuals are completely immobile individuals, and moribund individuals are individuals who cannot get up when turned on their backs.
Moribund and mortal rates (%)={(number of dead individuals+number of moribund individuals)/number of tested individuals}×100 (Equation 1)

[2] = test system: Argentine worker ants (Linepithema humile); test: Aerosol spray test on adult Argentine worker ants, moribund and mortal rates; assay type: in vivo; conditions: aerosol per Formulation Example 2 (0.1 part compound), from height 60 cm, ten adult workers, seven days after spraying
Protocol: as §1
In a plastic container (diameter: 10 cm, height: 4.5 cm) lined with a filter paper (diameter: 8.2 cm), ten adult Argentine worker ants (Linepithema humile) were released, and the plastic container was placed in the center of the bottom of a cylindrical chamber of 17.2 cm in diameter. From the height of 60 cm, the aerosol containing each compound listed in Table 2 which was fabricated according to the method mentioned in Formulation Example 2 was sprayed with a spray time of 0.34 second or 0.68 second and a spray amount of about 400 mg or 200 mg. After a lapse of seven days from spraying, the number of dead and moribund individuals was examined, and moribund and mortal rates (%) were determined by the equation 2 below. Dead individuals are completely immobile individuals, and moribund individuals are individuals who cannot get up when turned on their backs.
Moribund and mortal rates (%)={(number of dead individuals+number of moribund individuals)/number of tested individuals}×100 (Equation 2)

SMILES	Moribund and mortal rates (%) after one day [1]	Moribund and mortal rates (%) after seven days ([2]; spray amount 200 mg)	Moribund and mortal rates (%) after seven days ([2]; spray amount 400 mg)
CCS(=O)(=O)c1cc(C(F)(F)F)cnc1-c1nc2cc([S+]([O-])C(F)(F)F)ccc2o1 (stereo not drawn) [Comparative compound 1]	30%	10%	100%
CCS(=O)(=O)c1cc(C(F)(F)F)cnc1-c1nc2cc(S(=O)(=O)C(F)(F)F)ccc2o1 [Comparative compound 2]	30%	13%	100%
CCS(=O)(=O)c1cc(C)cnc1-c1nc2cc([S+]([O-])C(F)(F)F)ccc2o1 (stereo not drawn) [Comparative compound 3]	30%	3%	100%
CCS(=O)(=O)c1cc(C)cnc1-c1nc2cc(S(=O)(=O)C(F)(F)F)ccc2o1 [Comparative compound 4]	15%	10%	100%
CCS(=O)(=O)c1cc(C2CC2)cnc1-c1nc2cc([S+]([O-])C(F)(F)F)ccc2o1 (stereo not drawn) [Present compound A]	100%	100%	100%
CCS(=O)(=O)c1cc(C2CC2)cnc1-c1nc2cc(S(=O)(=O)C(F)(F)F)ccc2o1 [Present compound B]	100%	100%	100%
